Experiments:
[1] = system: Bone-marrow-derived macrophages; test: Pro-inflammatory cytokine secretion (BIOPLEX); assay type: cell-based, mouse; conditions: 3 μM bosutinib or 0.3 μM dasatinib 1 h, LPS 8 h
Experimental: The concentration of TNFα, IL-6, IL-10 and IL-12p40 in cell-free culture supernatants were measured using the Bio-Plex Pro Assay system (Bio-Rad).

[2] = target: T1, CHK1 (Homo sapiens, UniProt O14757); test: Kinase profiling; assay type: biochemical
T1 sequence (O14757 1-476): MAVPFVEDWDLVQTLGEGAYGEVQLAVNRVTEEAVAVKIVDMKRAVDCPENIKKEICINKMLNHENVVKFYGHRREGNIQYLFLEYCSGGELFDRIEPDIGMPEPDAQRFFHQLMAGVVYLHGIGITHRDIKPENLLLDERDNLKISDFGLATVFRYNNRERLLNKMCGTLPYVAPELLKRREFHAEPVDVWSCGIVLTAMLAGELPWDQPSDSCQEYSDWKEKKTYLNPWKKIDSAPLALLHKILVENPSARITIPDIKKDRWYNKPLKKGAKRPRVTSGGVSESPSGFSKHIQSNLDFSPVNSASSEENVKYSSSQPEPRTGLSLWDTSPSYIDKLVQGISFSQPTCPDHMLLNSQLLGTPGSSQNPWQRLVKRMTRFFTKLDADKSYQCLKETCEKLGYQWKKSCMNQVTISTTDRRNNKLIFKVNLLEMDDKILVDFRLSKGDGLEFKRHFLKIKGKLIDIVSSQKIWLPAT

[3] = target: T2, DYRK3 (Homo sapiens, UniProt O43781); test: Kinase profiling; assay type: biochemical
T2 sequence (O43781 1-588): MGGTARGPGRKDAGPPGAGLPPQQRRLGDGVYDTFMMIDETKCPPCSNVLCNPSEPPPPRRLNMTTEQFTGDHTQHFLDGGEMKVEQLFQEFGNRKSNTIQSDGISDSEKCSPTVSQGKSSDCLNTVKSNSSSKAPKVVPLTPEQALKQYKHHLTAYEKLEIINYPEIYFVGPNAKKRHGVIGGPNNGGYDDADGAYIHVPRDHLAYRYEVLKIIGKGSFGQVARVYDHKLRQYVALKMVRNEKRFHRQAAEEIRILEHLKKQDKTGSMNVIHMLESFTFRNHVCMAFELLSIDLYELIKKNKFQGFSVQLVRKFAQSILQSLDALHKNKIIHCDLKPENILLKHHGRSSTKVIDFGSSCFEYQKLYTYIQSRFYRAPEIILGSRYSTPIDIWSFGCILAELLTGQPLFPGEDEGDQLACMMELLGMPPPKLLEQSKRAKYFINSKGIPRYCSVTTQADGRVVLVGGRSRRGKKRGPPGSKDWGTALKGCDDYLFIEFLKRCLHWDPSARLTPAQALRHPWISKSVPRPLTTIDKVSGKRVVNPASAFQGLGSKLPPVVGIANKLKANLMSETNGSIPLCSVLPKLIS

[4] = target: HER4 (Homo sapiens, UniProt Q15303); test: Kinase profiling; assay type: biochemical
[5] = target: IR (Homo sapiens, UniProt P06213); test: Kinase profiling; assay type: biochemical
[6] = target: T3, MAP4K3 (Homo sapiens, UniProt Q8IVH8); test: Kinase profiling; assay type: biochemical
T3 sequence (Q8IVH8 1-894): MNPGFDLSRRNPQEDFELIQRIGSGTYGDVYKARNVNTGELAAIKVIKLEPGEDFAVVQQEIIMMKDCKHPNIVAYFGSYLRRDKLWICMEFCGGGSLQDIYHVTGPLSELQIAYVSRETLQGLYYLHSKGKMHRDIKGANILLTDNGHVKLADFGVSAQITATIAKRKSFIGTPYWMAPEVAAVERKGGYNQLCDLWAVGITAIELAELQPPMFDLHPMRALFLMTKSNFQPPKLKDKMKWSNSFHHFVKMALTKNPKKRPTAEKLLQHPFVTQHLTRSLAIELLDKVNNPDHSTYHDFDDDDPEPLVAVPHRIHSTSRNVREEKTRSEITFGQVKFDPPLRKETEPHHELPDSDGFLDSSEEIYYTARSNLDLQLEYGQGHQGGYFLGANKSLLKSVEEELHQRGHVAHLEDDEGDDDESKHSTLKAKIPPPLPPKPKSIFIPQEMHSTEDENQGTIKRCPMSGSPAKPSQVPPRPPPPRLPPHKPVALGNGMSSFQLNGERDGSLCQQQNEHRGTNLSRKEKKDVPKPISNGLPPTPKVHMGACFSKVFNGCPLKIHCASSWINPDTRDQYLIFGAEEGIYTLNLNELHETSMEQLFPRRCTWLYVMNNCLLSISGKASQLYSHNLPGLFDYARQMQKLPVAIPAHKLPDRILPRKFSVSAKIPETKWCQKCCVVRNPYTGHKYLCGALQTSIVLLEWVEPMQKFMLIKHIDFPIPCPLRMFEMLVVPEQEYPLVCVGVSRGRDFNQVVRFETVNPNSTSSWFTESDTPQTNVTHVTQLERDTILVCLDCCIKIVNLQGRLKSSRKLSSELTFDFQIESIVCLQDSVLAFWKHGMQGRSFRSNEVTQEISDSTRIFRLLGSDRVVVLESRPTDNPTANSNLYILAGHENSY

[7] = target: MAPKAP-K3 (Homo sapiens, UniProt Q16644); test: Kinase profiling; assay type: biochemical
[8] = target: MKK2 (Homo sapiens, UniProt P36507); test: Kinase profiling; assay type: biochemical
[9] = target: p38 alpha MAPK (Homo sapiens, UniProt Q16539); test: Kinase profiling; assay type: biochemical
[10] = target: PAK6 (Homo sapiens, UniProt Q9NQU5); test: Kinase profiling; assay type: biochemical
[11] = target: PKC alpha (Homo sapiens, UniProt P17252); test: Kinase profiling; assay type: biochemical
[12] = target: PRK2 (Homo sapiens, UniProt Q16513); test: Kinase profiling; assay type: biochemical
[13] = target: RIPK2 (Homo sapiens, UniProt O43353); test: Kinase profiling; assay type: biochemical
RIPK2, sequence (O43353 whole entry): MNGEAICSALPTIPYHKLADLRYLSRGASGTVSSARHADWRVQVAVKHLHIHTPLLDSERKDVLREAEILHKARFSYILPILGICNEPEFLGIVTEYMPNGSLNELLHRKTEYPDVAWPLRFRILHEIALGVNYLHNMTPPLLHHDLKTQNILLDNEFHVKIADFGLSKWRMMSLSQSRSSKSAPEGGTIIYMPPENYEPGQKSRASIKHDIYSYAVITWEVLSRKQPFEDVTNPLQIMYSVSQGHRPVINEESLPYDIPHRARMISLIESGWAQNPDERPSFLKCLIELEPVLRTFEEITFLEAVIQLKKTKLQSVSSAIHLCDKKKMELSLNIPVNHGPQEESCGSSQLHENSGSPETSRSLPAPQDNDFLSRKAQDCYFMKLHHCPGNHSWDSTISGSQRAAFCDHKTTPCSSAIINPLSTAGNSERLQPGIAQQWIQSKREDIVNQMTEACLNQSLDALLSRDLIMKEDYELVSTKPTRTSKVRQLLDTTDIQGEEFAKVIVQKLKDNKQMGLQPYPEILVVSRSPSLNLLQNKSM

PRK2, sequence (Q16513 whole entry): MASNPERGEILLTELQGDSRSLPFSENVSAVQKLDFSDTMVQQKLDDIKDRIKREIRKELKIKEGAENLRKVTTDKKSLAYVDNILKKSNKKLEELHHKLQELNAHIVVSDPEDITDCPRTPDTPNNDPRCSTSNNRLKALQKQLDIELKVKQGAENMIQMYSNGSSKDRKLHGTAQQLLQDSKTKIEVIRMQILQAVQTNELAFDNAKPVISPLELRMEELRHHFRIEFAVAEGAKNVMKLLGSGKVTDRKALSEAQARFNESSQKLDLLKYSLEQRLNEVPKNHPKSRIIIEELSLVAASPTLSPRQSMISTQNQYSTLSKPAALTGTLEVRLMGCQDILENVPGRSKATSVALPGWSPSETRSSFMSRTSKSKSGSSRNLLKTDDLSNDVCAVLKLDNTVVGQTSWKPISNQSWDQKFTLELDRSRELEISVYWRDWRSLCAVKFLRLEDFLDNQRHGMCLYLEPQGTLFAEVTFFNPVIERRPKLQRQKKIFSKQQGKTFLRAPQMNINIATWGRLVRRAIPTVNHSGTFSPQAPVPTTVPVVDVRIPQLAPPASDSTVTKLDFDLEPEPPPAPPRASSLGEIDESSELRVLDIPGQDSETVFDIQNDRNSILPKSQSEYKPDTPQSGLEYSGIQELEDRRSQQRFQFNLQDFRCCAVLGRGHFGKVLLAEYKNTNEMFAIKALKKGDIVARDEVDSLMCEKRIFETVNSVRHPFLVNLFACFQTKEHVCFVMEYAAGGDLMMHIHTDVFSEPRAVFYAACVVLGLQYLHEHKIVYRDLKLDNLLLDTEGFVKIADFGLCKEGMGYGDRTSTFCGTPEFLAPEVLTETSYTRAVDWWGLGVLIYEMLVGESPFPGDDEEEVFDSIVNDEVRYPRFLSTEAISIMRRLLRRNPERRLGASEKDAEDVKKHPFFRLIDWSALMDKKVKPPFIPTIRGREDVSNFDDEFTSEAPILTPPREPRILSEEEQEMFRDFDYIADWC
HER4, sequence (Q15303 26-1308): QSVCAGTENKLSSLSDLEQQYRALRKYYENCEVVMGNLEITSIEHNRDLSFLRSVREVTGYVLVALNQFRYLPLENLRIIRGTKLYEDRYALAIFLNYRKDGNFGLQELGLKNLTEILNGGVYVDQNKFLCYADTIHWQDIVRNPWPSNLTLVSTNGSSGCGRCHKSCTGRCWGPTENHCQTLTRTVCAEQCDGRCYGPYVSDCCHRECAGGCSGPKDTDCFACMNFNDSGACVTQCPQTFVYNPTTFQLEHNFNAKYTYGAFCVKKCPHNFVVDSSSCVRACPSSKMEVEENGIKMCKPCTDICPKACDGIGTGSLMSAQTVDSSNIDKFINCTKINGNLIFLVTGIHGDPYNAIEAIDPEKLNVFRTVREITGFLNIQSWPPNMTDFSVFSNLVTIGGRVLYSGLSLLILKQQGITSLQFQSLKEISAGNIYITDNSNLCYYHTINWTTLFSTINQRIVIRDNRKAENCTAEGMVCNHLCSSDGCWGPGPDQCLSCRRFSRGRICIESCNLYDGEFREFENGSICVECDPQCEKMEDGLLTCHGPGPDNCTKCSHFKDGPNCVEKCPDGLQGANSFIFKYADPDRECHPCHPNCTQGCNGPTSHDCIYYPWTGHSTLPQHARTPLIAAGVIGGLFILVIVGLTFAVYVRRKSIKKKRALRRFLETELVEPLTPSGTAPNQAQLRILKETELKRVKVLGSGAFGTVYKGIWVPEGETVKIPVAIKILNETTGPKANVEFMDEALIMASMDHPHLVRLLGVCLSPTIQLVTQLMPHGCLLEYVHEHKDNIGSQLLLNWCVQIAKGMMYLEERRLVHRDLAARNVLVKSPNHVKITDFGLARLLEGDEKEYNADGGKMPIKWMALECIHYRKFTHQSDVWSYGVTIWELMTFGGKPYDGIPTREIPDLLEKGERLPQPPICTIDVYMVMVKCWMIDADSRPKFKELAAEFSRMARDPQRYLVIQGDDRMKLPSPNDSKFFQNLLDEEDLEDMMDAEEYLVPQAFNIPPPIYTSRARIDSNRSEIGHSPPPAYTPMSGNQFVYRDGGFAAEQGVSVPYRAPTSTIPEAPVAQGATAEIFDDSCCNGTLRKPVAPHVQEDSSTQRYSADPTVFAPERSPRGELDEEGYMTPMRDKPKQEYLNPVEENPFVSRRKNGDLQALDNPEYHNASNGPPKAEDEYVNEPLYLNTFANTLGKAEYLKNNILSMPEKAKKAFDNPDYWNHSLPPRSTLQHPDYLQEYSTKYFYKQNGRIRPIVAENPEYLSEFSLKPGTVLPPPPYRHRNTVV
MKK2, sequence (P36507 whole entry): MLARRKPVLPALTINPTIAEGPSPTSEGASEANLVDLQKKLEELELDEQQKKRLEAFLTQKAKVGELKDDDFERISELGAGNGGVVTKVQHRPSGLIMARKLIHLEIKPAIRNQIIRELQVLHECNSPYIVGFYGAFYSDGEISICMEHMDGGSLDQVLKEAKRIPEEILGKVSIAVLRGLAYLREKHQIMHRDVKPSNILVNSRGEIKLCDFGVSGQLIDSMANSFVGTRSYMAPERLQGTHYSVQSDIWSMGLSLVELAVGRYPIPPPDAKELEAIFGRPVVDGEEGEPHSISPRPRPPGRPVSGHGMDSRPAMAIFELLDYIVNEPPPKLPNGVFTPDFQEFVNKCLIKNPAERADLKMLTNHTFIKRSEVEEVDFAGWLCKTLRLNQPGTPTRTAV
PAK6, sequence (Q9NQU5 whole entry): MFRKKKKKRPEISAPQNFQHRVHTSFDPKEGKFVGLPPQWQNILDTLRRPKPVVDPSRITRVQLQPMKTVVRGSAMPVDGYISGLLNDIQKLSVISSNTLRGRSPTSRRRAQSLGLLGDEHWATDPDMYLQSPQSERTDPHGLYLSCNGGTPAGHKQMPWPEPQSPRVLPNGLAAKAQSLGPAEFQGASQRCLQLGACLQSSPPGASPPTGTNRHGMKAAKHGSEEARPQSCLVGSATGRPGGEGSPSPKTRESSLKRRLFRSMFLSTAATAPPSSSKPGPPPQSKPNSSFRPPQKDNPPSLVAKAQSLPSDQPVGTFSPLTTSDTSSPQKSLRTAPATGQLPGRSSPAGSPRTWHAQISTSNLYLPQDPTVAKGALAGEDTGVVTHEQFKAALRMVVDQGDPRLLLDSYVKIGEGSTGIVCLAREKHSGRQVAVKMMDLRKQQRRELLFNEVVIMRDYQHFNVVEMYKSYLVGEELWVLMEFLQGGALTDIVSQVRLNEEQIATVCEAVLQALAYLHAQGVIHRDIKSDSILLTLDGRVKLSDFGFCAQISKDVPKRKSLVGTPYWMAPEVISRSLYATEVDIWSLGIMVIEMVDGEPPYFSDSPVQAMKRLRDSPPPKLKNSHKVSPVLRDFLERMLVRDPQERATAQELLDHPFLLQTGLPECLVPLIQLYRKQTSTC
p38 alpha MAPK, sequence (Q16539 whole entry): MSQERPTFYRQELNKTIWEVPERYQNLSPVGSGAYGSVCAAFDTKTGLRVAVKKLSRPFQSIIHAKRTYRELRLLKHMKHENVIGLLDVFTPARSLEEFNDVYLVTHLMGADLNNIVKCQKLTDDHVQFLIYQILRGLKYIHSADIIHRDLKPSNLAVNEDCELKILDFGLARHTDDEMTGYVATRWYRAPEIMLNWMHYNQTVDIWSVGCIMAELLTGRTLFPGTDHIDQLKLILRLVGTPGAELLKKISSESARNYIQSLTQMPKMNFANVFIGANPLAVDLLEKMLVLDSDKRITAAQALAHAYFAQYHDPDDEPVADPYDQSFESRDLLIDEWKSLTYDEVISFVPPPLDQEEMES

Row | SMILES | Production of IL-6, IL-12p40 and TNFα [1] | remaining activity at 0.1 µM [2] | remaining activity at 1 µM [2] | remaining activity at 0.1 µM [3] | remaining activity at 1 µM [3] | remaining activity at 0.1 µM [4] | remaining activity at 1 µM [4] | remaining activity at 0.1 µM [5] | remaining activity at 1 µM [5] | remaining activity at 0.1 µM [6] | remaining activity at 1 µM [6] | remaining activity at 0.1 µM [7] | remaining activity at 1 µM [7] | remaining activity at 0.1 µM [8] | remaining activity at 1 µM [8] | remaining activity at 0.1 µM [9] | remaining activity at 1 µM [9] | remaining activity at 1 µM [10] | remaining activity at 0.1 µM [11] | remaining activity at 1 µM [11] | other results
1 | COc1cc(Nc2c(C#N)cnc3cc(OCCCN4CCN(C)CC4)c(OC)cc23)c(Cl)cc1Cl [Bosutinib, bosutinib] | inhibited | 91 ± 2% | 57% | 85 ± 11% | 90 ± 16% | 9% | 1 ± 1% | 87 ± 7% | 107 ± 34% | 3% | 1% | 113 ± 1% | 103 ± 8% | 60 ± 3% | 21 ± 4% | 97 ± 4% | 72 ± 3% | 132 ± 7% | 96 ± 5% | 103 ± 3% | remaining activity at 0.1 µM [12]: 86 ± 6%; remaining activity at 1 µM [12]: 56 ± 3%; remaining activity at 0.1 µM [13]: 86 ± 2%; remaining activity at 1 µM [13]: 45 ± 1%
2 | Cc1nc(Nc2ncc(C(=O)Nc3c(C)cccc3Cl)s2)cc(N2CCN(CCO)CC2)n1 [Dasatinib] | inhibited | 100 ± 6% | 96 ± 6% | 98 ± 7% | 104 ± 9% | 27 ± 1% | 6% | 99 ± 2% | 94 ± 7% | 88 ± 15% | 54 ± 1% | 117 ± 3% | 132 ± 1% | 113 ± 11% | 91% | 79 ± 15% | 29 ± 2% | 120 ± 4% | 98 ± 3% | 105 ± 14% | remaining activity at 0.1 µM ([10]; 0.1 µM): 126 ± 9%; remaining activity at 0.1 µM [12]: 100 ± 2%; remaining activity at 1 µM [12]: 101%; remaining activity at 0.1 µM [13]: 5%; remaining activity at 1 µM [13]: 10 ± 12%
